Legend:
[1] = system: 0DJ-Luc (luciferase gene lacking the DJ-1 promoter sequence); test: Luciferase reporter assay in control cell lines expressing 0DJ-Luc; format: cell-based, human; settings: H2O2 treatment
Text: (§1) To develop a cell-based assay system where one can identify agents that transcriptionally modulate DJ-1, a plasmid vector (−1000DJ-Luc) was made that expressed a luciferase reporter gene directed by the human DJ-1 promoter containing 1000 base pairs upstream and 65 base pairs downstream sequences (−1000 to +65) of the transcription initiation site (FIG. 1). A […] sequence containing +46 to +65 of the DJ-1 gene was fused to the luciferase gene to generate the control plasmid (0DJLuc). A neomycin resistance gene was inserted into the vectors as a selection marker.
(§2) Using the vector described in Example 1, human SH-SY5Y neuroblastoma cells were transfected with either −1000DJLuc or 0DJLuc; stably transfected clones were subsequently identified. A plasmid encoding β-galactosidase gene was co-transfected to serve as an internal control for luciferase expression.
(§3) To confirm the stable expression of the reporter genes and to evaluate these cells as devices for drug discovery, stably transfected SH-SY5Y cells were treated with increasing doses of H2O2, which has been reported to upregulate DJ-1. […] Luciferase and β-galactosidase activities were then determined. […]
(§4) C. […] Luciferase and β-galactosidase activities were determined using assay kits following manufacturer's protocol (Promega).

human DJ-1 promoter = test: DJ-1 promoter luciferase reporter assay in SH-SY5Y cells stably expressing −1000DJ-Luc; format: cell-based; settings: SH-SY5Y cells stably expressing −1000DJ-Luc and CMV-β-galactosidase; increasing doses of H2O2 for 24 hours; untreated sample designated as 100; FIG. 2
Text: as §1, §2, §3, §4

OO [H2O2]
Luciferase activity in control cell lines expressing 0DJ-Luc [1]: not affected
Luciferase activity normalized to β-galactosidase activity (human DJ-1 promoter activation) (human DJ-1 promoter): activated the human DJ-1 promoter in a dose dependent manner

From patent US20100047776A1, “Cell-based screening assays for compounds that regulate the expresion of a tumor marker dj-1” (Caritas St. Elizabeth Medical Center of Boston Inc., priority 2005, published 2010)
